For 25 compounds, T/C results are on record in PubChem BioAssay AID248 (DTP/NCI, 2004).

“And” between values parts separate entries of the source, which are not always exact repeats. Equal entries are not always repeated. Inconclusive results and toxic doses are left out.

The test deals with L1210 leukemia ip in BDF1 mice, survival T/C. Briefly: NCI In Vivo Anticancer Drug Screen. Data for tumor model L1210 Leukemia (intraperitoneal) in B6D2F1 (BDF1) mice. The settings on record: endpoint: mean survival time, higher = longer survival. The gist of the method: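 In this screen, tumor-bearing mice given compound are compared to those given vehicle, and their survival values are reported as a treated-to-control quotient.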

The mark [1] stands for this setting: dose: 100.0 mg/kg/injection, schedule: Q01DX001 (ip), vehicle: Klucel (hydroxypropylcellulose) (HPC).
The mark [2] stands for this setting: dose: 200.0 mg/kg/injection, schedule: Q01DX001 (ip), vehicle: Klucel (hydroxypropylcellulose) (HPC).
Where [3] appears, read: dose: 100.0 mg/kg/injection, schedule: Q01DX009 (ip), vehicle: Klucel (hydroxypropylcellulose) (HPC).
Where [4] appears, read: dose: 100.0 mg/kg/injection, schedule: Q04DX002 (ip), vehicle: Klucel (hydroxypropylcellulose) (HPC).
Setting [5] is: dose: 200.0 mg/kg/injection, schedule: Q01DX009 (ip), vehicle: Klucel (hydroxypropylcellulose) (HPC).
[6] abbreviates: dose: 200.0 mg/kg/injection, schedule: Q04DX002 (ip), vehicle: Klucel (hydroxypropylcellulose) (HPC).
The mark [7] stands for this setting: dose: 400.0 mg/kg/injection, schedule: Q04DX002 (ip), vehicle: Klucel (hydroxypropylcellulose) (HPC).
The mark [8] stands for this setting: dose: 100.0 mg/kg/injection, schedule: Q04DX003 (ip), vehicle: Klucel (hydroxypropylcellulose) (HPC).
Setting [9] is: dose: 200.0 mg/kg/injection, schedule: Q04DX003 (ip), vehicle: Klucel (hydroxypropylcellulose) (HPC).
Where [10] appears, read: dose: 400.0 mg/kg/injection, schedule: Q04DX003 (ip), vehicle: Klucel (hydroxypropylcellulose) (HPC).
[11] abbreviates: dose: 25.0 mg/kg/injection, schedule: Q04DX003 (ip), vehicle: saline.
[12] abbreviates: dose: 50.0 mg/kg/injection, schedule: Q04DX003 (ip), vehicle: saline.
The mark [13] stands for this setting: dose: 100.0 mg/kg/injection, schedule: Q04DX003 (ip), vehicle: saline.
The mark [14] stands for this setting: dose: 100.0 mg/kg/injection, schedule: Q01DX001 (ip), vehicle: saline.
Setting [15] is: dose: 200.0 mg/kg/injection, schedule: Q01DX001 (ip), vehicle: saline.
Where [16] appears, read: dose: 400.0 mg/kg/injection, schedule: Q01DX001 (ip), vehicle: saline.
[17] abbreviates: dose: 50.0 mg/kg/injection, schedule: Q01DX009 (ip), vehicle: saline.
Setting [18] is: dose: 100.0 mg/kg/injection, schedule: Q01DX009 (ip), vehicle: saline.
Where [19] appears, read: dose: 100.0 mg/kg/injection, schedule: Q01DX009 (ip), vehicle: saline with Tween-80.
Setting [20] is: dose: 200.0 mg/kg/injection, schedule: Q01DX009 (ip), vehicle: saline with Tween-80.

Turning to `O=[N+]([O-])c1cccc(OCCCCOc2ccc(S(=O)(=O)F)cc2)c1`, the T/C (dose: 50.0 mg/kg/injection, schedule: Q01DX001 (ip), vehicle: Klucel (hydroxypropylcellulose) (HPC)) is 92 % of control; the T/C under setting [1] is 94 % of control; the T/C under setting [2] is 90 % of control.

As for `O=C(O)Cc1cccc(=O)n1Cc1ccccc1`, the T/C was 98 % of control (dose: 75.0 mg/kg/injection, schedule: Q04DX003 (ip), vehicle: Klucel (hydroxypropylcellulose) (HPC)); 100 % of control (dose: 150.0 mg/kg/injection, schedule: Q04DX003 (ip), vehicle: Klucel (hydroxypropylcellulose) (HPC)); 102 % of control (dose: 300.0 mg/kg/injection, schedule: Q04DX003 (ip), vehicle: Klucel (hydroxypropylcellulose) (HPC)).

In the case of `C=C(C)COC(OCC(=C)C)C(C)C`, the T/C is, setting by setting: under setting [3], 96 % of control; under setting [4], 102 % of control; under setting [5], 89 % of control; under setting [6], 109 % of control; under setting [7], 112 % of control.

Take `CCCCOC(=O)CNC(=O)N(CC)C(=NCC)c1ccc(NC(=O)c2ccc(C(=O)Nc3ccc(C(=NCC)N(CC)C(=O)NCC(=O)OCCCC)cc3)cc2)cc1`: the T/C was 106 % of control (dose: 1.87 mg/kg/injection, schedule: Q01DX015 (ip), vehicle: methylcellulose (MC)); 162 % of control and 189 % of control (dose: 7.5 mg/kg/injection, schedule: Q01DX015 (ip), vehicle: methylcellulose (MC)); 121 % of control (dose: 15.0 mg/kg/injection, schedule: Q01DX015 (ip), vehicle: methylcellulose (MC)).

Turning to `COc1cc(NC2=C(Cl)C(=O)C(Nc3cc(OC)c(OC)c(OC)c3)=C(Cl)C2=O)cc(OC)c1OC`, the T/C is 119 % of control under setting [8], 95 % of control under setting [9] and 98 % of control under setting [10].

As to `CCCCCCCCC1SC1CCCCCCCC(=O)NCCCOCCOCCOCC` (stereo not given), the T/C under setting [8] was 96 % of control, the T/C under setting [9] is 100 % of control and the T/C under setting [10] is 96 % of control.

Turning to `Cc1ccc(S(=O)(=O)[n+]2ccc(C)cc2)cc1`, the T/C under setting [4] was 98 % of control and the T/C under setting [6] is 95 % of control.

As for `CC1CC(C(=O)O)C(Cc2ccc([N+](=O)[O-])cc2)C1=O` (stereo not given), the T/C is, setting by setting: under setting [4], 93 % of control; under setting [6], 93 % of control; under setting [7], 89 % of control.

For the compound `CCCCNCCCC`, the T/C reads like this: under setting [11], 102 % of control; under setting [12], 96 % of control; under setting [13], 94 % of control.

With `O=c1cc(Nc2ccc(Cl)cc2)[nH]c(=O)[nH]1`, the T/C is, setting by setting: (dose: 100.0 mg/kg/injection, schedule: Q01DX001 (ip), vehicle: gum acacia) 101 % of control; (dose: 400.0 mg/kg/injection, schedule: Q01DX001 (ip), vehicle: gum acacia) 101 % of control.

As to `CCN(CC)C(=O)O/N=C/c1ccccc1`, the T/C reads like this: under setting [14], 94 % of control; under setting [15], 91 % of control; under setting [16], 96 % of control.

Regarding `O=C1c2ccccc2C(=O)c2cc(/C=N/Nc3ccc([N+](=O)[O-])cc3[N+](=O)[O-])ccc21`, the T/C was 93 % of control under setting [1]; 90 % of control under setting [2]; 86 % of control (dose: 400.0 mg/kg/injection, schedule: Q01DX001 (ip), vehicle: Klucel (hydroxypropylcellulose) (HPC)).

Consider `ClCOCCCCOCCl`, for which the T/C by setting is: under setting [17], 114 % of control; under setting [18], 87 % of control.

With `C=CCCC/C(C)=N/NS(=O)(=O)c1ccc(C)cc1`, the T/C is 112 % of control (dose: 50.0 mg/kg/injection, schedule: Q01DX009 (ip), vehicle: saline with Tween-80); 92 % of control under setting [19]; 106 % of control under setting [20].

Consider `COc1ccc2nc3cc(Cl)ccc3c(Nc3ccc(O)cc3)c2c1`, for which the T/C is, setting by setting: under setting [19], 91 % of control; under setting [20], 86 % of control.

As to `CC1(C)N=C(N)N=C(N)N1c1ccc(CCC(=O)Nc2cccc(S(=O)(=O)F)c2)cc1`, the T/C was 98 % of control (dose: 0.8 mg/kg/injection, schedule: Q01DX009 (ip), vehicle: saline); 106 % of control (dose: 4.0 mg/kg/injection, schedule: Q01DX009 (ip), vehicle: saline); 108 % of control (dose: 20.0 mg/kg/injection, schedule: Q01DX009 (ip), vehicle: saline); 119 % of control (dose: 25.0 mg/kg/injection, schedule: Q#A X018 (ip), vehicle: saline); 111 % of control under setting [17]; 113 % of control (dose: 50.0 mg/kg/injection, schedule: Q#A X018 (ip), vehicle: saline). For the same compound, the T/C under setting [18] is 112 % of control and 122 % of control; the T/C (dose: 100.0 mg/kg/injection, schedule: Q#A X018 (ip), vehicle: saline) is 88 % of control.

For the compound `CC(C)=CCC(=O)NC(=O)NS(=O)(=O)c1ccc(C)cc1`, the T/C was 100 % of control (dose: 10.2 mg/kg/injection, schedule: Q01DX009 (ip), vehicle: Klucel (hydroxypropylcellulose) (HPC)); 96 % of control under setting [3]; 100 % of control under setting [8]; 100 % of control under setting [5]; 102 % of control under setting [9]; 101 % of control under setting [10].

For the compound `c1ccc(-c2cccc3c2N=C2C3=Nc3c2cccc3-c2ccccc2)cc1`, the T/C under setting [8] was 96 % of control, the T/C under setting [9] is 95 % of control and the T/C under setting [10] is 93 % of control.

With `CCC(=O)OC1(c2ccccc2)CCN(C)C1C` (stereo not given), the T/C (dose: 6.25 mg/kg/injection, schedule: Q01DX009 (ip), vehicle: saline) is 101 % of control; the T/C (dose: 12.5 mg/kg/injection, schedule: Q01DX009 (ip), vehicle: saline) is 97 % of control; the T/C (dose: 25.0 mg/kg/injection, schedule: Q01DX009 (ip), vehicle: saline) is 103 % of control; the T/C under setting [11] was 103 % of control; the T/C under setting [17] was 111 % of control; the T/C under setting [12] is 105 % of control. Further, the T/C under setting [18] is 103 % of control and the T/C under setting [13] was 100 % of control.

`C/C=C/C=C\COC(=O)C(C)C`: the T/C is, setting by setting: (dose: 100.0 mg/kg/injection, schedule: Q04DX002 (ip), vehicle: saline) 103 % of control; (dose: 200.0 mg/kg/injection, schedule: Q04DX002 (ip), vehicle: saline) 96 % of control; (dose: 400.0 mg/kg/injection, schedule: Q04DX002 (ip), vehicle: saline) 114 % of control.

Consider `CCCCC(=O)OC1CC(C)CCC1C(C)C` (stereo not given), for which the T/C reads like this: under setting [3], 98 % of control; under setting [8], 93 % of control; under setting [5], 106 % of control; under setting [9], 96 % of control; (dose: 400.0 mg/kg/injection, schedule: Q01DX009 (ip), vehicle: Klucel (hydroxypropylcellulose) (HPC)) 98 % of control; under setting [10], 93 % of control.

`CN(C)c1ccc(/C=N/Nc2ncnc3nc[nH]c23)cc1`: the T/C (dose: 100.0 mg/kg/injection, schedule: Q04DX003 (ip), vehicle: saline with Tween-80) was 98 % of control; the T/C (dose: 200.0 mg/kg/injection, schedule: Q04DX003 (ip), vehicle: saline with Tween-80) is 96 % of control; the T/C (dose: 400.0 mg/kg/injection, schedule: Q04DX003 (ip), vehicle: saline with Tween-80) is 91 % of control.

In the case of `COC(=O)Cc1ccc2c(c1)OCO2`, the T/C under setting [14] is 97 % of control, the T/C under setting [15] is 101 % of control and the T/C under setting [16] is 103 % of control.

In the case of `Cc1cccn(C(=O)c2ccccc2)c1=N`, the T/C runs as follows: (dose: 100.0 mg/kg/injection, schedule: Q01DX001 (ip), vehicle: carboxymethylcellulose (CMC)) 100 % of control; (dose: 200.0 mg/kg/injection, schedule: Q01DX001 (ip), vehicle: carboxymethylcellulose (CMC)) 96 % of control; (dose: 400.0 mg/kg/injection, schedule: Q01DX001 (ip), vehicle: carboxymethylcellulose (CMC)) 102 % of control.

`CC1(C)C[N+](C)(Cc2ccccc2)N=C1[O-]` (stereo not given): the T/C is 94 % of control (dose: 25.0 mg/kg/injection, schedule: Q01DX001 (ip), vehicle: saline); 94 % of control (dose: 50.0 mg/kg/injection, schedule: Q01DX001 (ip), vehicle: saline); 94 % of control under setting [14]; 102 % of control under setting [15].
